Key:
Assay in all cases: Post-emergence herbicidal action against harmful plants (greenhouse)
Type in all cases: in vivo
[1] = test system: Abutilon theophrasti (ABUTH)
Method: (§1) Seeds of monocotyledonous and dicotyledonous weed and crop plants are laid out in sandy loam soil in wood-fibre pots, covered with soil and cultivated in a greenhouse under good growth conditions. 2 to 3 weeks after sowing, the test plants are treated at the one-leaf stage. The compounds of the invention, formulated in the form of wettable powders (WP) or as emulsion concentrates (EC), are then sprayed onto the green parts of the plants in the form of an aqueous suspension or emulsion at a water application rate equivalent to 600 to 800 l/ha, with addition of 0.2% wetting agent. After the test plants have been […], the action of the preparations is assessed visually in comparison to untreated controls (herbicidal action in percent (%): 100% activity=the plants have died, 0% activity=like control plants). […] The tables below illustrate, in an illustrative manner, the post-emergence herbicidal action of the compounds of the invention, the herbicidal activity being stated in percent.
(§2) In the tables that follow, the abbreviations mean the following: • E: means the synergism value to be expected according to the Colby formula. • Δ SYN: means the difference between the actual and expected synergism value. • DAT: means days after treatment.

Cyperus iria (CYPIR) = test system: Cyperus iria (CYPIR)
Method: as §1, §2

[2] = test system: Erigeron bonariensis (ERIBO)
Method: as §1, §2

Solanum nigrum (SOLNI) = test system: Solanum nigrum (SOLNI)
Method: as §1, §2

[3] = test system: Brachiaria platyphylla (BRAPP)
Method: (§3) Seeds of monocotyledonous and dicotyledonous weed and crop plants are laid out in sandy loam soil in wood-fibre pots, covered with soil and cultivated in a greenhouse under good growth conditions. 2 to 3 weeks after sowing, the test plants are treated at the one-leaf stage. The compounds of the invention, formulated in the form of wettable powders (WP) or as emulsion concentrates (EC), are then sprayed onto the green parts of the plants in the form of an aqueous suspension or emulsion at a water application rate equivalent to 600 to 800 l/ha, with addition of 0.2% wetting agent. After the test plants have been left to stand in the greenhouse under optimal growth conditions for about 3 weeks, the action of the preparations is assessed visually in comparison to untreated controls (herbicidal action in percent (%): 100% activity=the plants have died, 0% activity=like control plants). […] The tables below illustrate, in an illustrative manner, the post-emergence herbicidal action of the compounds of the invention, the herbicidal activity being stated in percent.
as §2

Emex australis (EMEAU) = test system: Emex australis (EMEAU)
Method: as §3, §2

[4] = test system: Sorghum halepense (SORHA)
Method: as §3, §2

[5] = test system: Xanthium strumarium (XANST)
Method: as §3, §2

[6] = test system: Polygonum convolvulus (POLCO)
[7] = test system: Xanthium strumarium (XANST); conditions: for Herbicidal efficacy [%] against XANST 10 DAT: application rate 0.3 g a.i./ha
[8] = test system: Euphorbia heterophylla (EPHHL); conditions: 21 DAT
Method: as §3, §2

[9] = test system: Pharbitis purpurea (PHBPU)
Setaria viridis (SETVI) = test system: Setaria viridis (SETVI)
Method: as §1, §2

[10] = application rate 0.025 g a.i./ha
[11] = application rate 0.00625 g a.i./ha
[12] = application rate 0.025 g a.i./ha, 21 DAT

C=C[C@]1(C(=O)N[C@H]2C=C[C@@H](C(=O)OC)C2)CC(c2cc(F)cc(F)c2)=NO1 [P2, methyl (1S,4R)-4-[[(5S)-3-(3,5-difluorophenyl)-5-vinyl-4H-isoxazole-5-carbonyl]amino]cyclopent-2-ene-1-carboxylate]
Herbicidal efficacy ([1]; ABUTH 10 DAT, 0.3 g a.i./ha): 20% | Herbicidal efficacy ([1]; ABUTH 10 DAT, 1.2 g a.i./ha): 30% | Herbicidal efficacy ([1]; ABUTH 21 DAT, 0.3 g a.i./ha): 10% | Herbicidal efficacy ([1]; ABUTH 21 DAT, 1.2 g a.i./ha): 20% | Herbicidal efficacy (Cyperus iria (CYPIR); CYPIR 10 DAT, 0.3 g a.i./ha): 50% | Herbicidal efficacy (Cyperus iria (CYPIR); CYPIR 10 DAT, 1.2 g a.i./ha): 88% | Herbicidal efficacy (Cyperus iria (CYPIR); CYPIR 21 DAT, 0.3 g a.i./ha): 40% | Herbicidal efficacy (Cyperus iria (CYPIR); CYPIR 21 DAT, 1.2 g a.i./ha): 88% | Herbicidal efficacy ([2]; ERIBO 10 DAT, 0.3 g a.i./ha): 0% | Herbicidal efficacy ([2]; ERIBO 21 DAT, 0.3 g a.i./ha): 0% | Herbicidal efficacy (Solanum nigrum (SOLNI); SOLNI 10 DAT, 0.3 g a.i./ha): 60% | Herbicidal efficacy (Solanum nigrum (SOLNI); SOLNI 21 DAT, 1.2 g a.i./ha): 40% | Herbicidal efficacy ([3]; BRAPP 21 DAT, 0.3 g a.i./ha): 85% | Herbicidal efficacy (Emex australis (EMEAU); EMEAU 21 DAT, 0.3 g a.i./ha): 88% | Herbicidal efficacy (Emex australis (EMEAU); EMEAU 21 DAT, 1.2 g a.i./ha): 88% | Herbicidal efficacy [%] against SORHA 10 DAT ([4]; application rate 0.3 g a.i./ha): 80% | Herbicidal efficacy [%] against XANST 21 DAT ([5]; application rate 0.3 g a.i./ha): 10% | Herbicidal efficacy ([6]; POLCO 21 DAT, 0.3 g a.i./ha): 90% | Herbicidal efficacy [%] against XANST 10 DAT [7]: 20%

COC(=O)[C@@H](C)O/N=C/c1cc(-n2c(=O)cc(C(F)(F)F)n(C)c2=O)c(F)cc1Cl [flufenoximacil]
Herbicidal efficacy [%] against ERIBO 21 DAT [2, 10]: 40% | Herbicidal efficacy [%] against ERIBO 21 DAT ([2]; application rate 0.1 g a.i./ha): 60% | Herbicidal efficacy [%] against EMEAU 10 DAT (Emex australis (EMEAU); application rate 0.00625 g a.i./ha, 10 DAT): 50% | Herbicidal efficacy [%] against EMEAU 21 DAT (Emex australis (EMEAU); application rate 0.00625 g a.i./ha, 21 DAT): 10% | Herbicidal efficacy [%] against EPHHL 21 DAT [8, 11]: 40% | Herbicidal efficacy [%] against EPHHL 21 DAT [8, 10]: 88% | Herbicidal efficacy [%] against SORHA 10 DAT [4, 11]: 20% | Herbicidal efficacy [%] against XANST 21 DAT [5, 11]: 10% | Herbicidal efficacy [%] against PHBPU 21 DAT [9, 12]: 75% | Herbicidal efficacy [%] against POLCO 21 DAT [6, 12]: 60%

C=C[C@]1(C(=O)N[C@H]2CO[C@@H](C(=O)OC)C2)CC(c2cc(F)cc(F)c2)=NO1 (relative stereo) [P1, methyl (2R*,4R*)-4-[[(5S)-3-(3,5-difluorophenyl)-5-vinyl-4H-isoxazole-5-carbonyl]amino]tetrahydrofuran-2-carboxylate]
Herbicidal efficacy ([1]; ABUTH 10 DAT, 0.3 g a.i./ha): 70% | Herbicidal efficacy ([1]; ABUTH 21 DAT, 1.2 g a.i./ha): 85% | Herbicidal efficacy (Solanum nigrum (SOLNI); SOLNI 10 DAT, 0.3 g a.i./ha): 40% | Herbicidal efficacy (Emex australis (EMEAU); EMEAU 10 DAT, 1.2 g a.i./ha): 70% | Herbicidal efficacy (Emex australis (EMEAU); EMEAU 21 DAT, 1.2 g a.i./ha): 80% | Herbicidal efficacy [%] against SORHA 21 DAT ([4]; application rate 0.3 g a.i./ha): 90% | Herbicidal efficacy [%] against SORHA 21 DAT ([4]; application rate 1.2 g a.i./ha): 90% | Herbicidal efficacy [%] against XANST 21 DAT ([5]; application rate 0.3 g a.i./ha): 40% | Herbicidal efficacy [%] against XANST 10 DAT [7]: 60%

Cc1cccc(C)c1-n1c(=O)c2cc(C(=O)C3C(=O)CCCC3=O)ccc2n(C)c1=O [benquitrione]
Herbicidal efficacy ([1]; ABUTH 10 DAT, 1.5 g a.i./ha): 20% | Herbicidal efficacy ([1]; ABUTH 10 DAT, 6 g a.i./ha): 40% | Herbicidal efficacy ([1]; ABUTH 21 DAT, 6 g a.i./ha): 10% | Herbicidal efficacy (Cyperus iria (CYPIR); CYPIR 10 DAT, 1.5 g a.i./ha): 40% | Herbicidal efficacy (Cyperus iria (CYPIR); CYPIR 21 DAT, 1.5 g a.i./ha): 30% | Herbicidal efficacy ([2]; ERIBO 10 DAT, 6 g a.i./ha): 85% | Herbicidal efficacy ([2]; ERIBO 21 DAT, 6 g a.i./ha): 85% | Herbicidal efficacy (Setaria viridis (SETVI); SETVI 10 DAT, 6 g a.i./ha): 88% | Herbicidal efficacy (Setaria viridis (SETVI); SETVI 21 DAT, 1.5 g a.i./ha): 50% | Herbicidal efficacy (Solanum nigrum (SOLNI); SOLNI 21 DAT, 6 g a.i./ha): 85% | Herbicidal efficacy ([3]; BRAPP 10 DAT, 1.5 g a.i./ha): 20% | Herbicidal efficacy ([3]; BRAPP 10 DAT, 6 g a.i./ha): 80% | Herbicidal efficacy ([3]; BRAPP 21 DAT, 1.5 g a.i./ha): 10% | Herbicidal efficacy ([3]; BRAPP 21 DAT, 6 g a.i./ha): 20% | Herbicidal efficacy [%] against SORHA 10 DAT ([4]; application rate 1.5 g a.i./ha): 10% | Herbicidal efficacy [%] against SORHA 21 DAT ([4]; application rate 1.5 g a.i./ha): 0% | Herbicidal efficacy [%] against SORHA 10 DAT ([4]; application rate 6 g a.i./ha): 20% | Herbicidal efficacy [%] against SORHA 21 DAT ([4]; application rate 6 g a.i./ha): 10% | Herbicidal efficacy ([9]; PHBPU 10 DAT, 6 g a.i./ha): 40% | Herbicidal efficacy ([9]; PHBPU 21 DAT, 6 g a.i./ha): 20% | Herbicidal efficacy ([6]; POLCO 10 DAT, 6 g a.i./ha): 20% | Herbicidal efficacy [%] against XANST 21 DAT ([7]; application rate 6 g a.i./ha, 21 DAT): 50%

CCn1ncc(C(=O)c2ccc(S(C)(=O)=O)c(OCCOC)c2C)c1OC(C)OC(=O)OC (stereo not shown) [tolpyralate]
Herbicidal efficacy (Cyperus iria (CYPIR); CYPIR 10 DAT, 0.5 g a.i./ha): 40% | Herbicidal efficacy (Cyperus iria (CYPIR); CYPIR 21 DAT, 0.5 g a.i./ha): 20% | Herbicidal efficacy (Cyperus iria (CYPIR); CYPIR 21 DAT, 2 g a.i./ha): 30% | Herbicidal efficacy ([2]; ERIBO 10 DAT, 2 g a.i./ha): 90% | Herbicidal efficacy ([2]; ERIBO 21 DAT, 2 g a.i./ha): 85% | Herbicidal efficacy (Setaria viridis (SETVI); SETVI 21 DAT, 0.5 g a.i./ha): 60% | Herbicidal efficacy (Setaria viridis (SETVI); SETVI 21 DAT, 2 g a.i./ha): 88% | Herbicidal efficacy [%] against SOLNI 21 DAT (Solanum nigrum (SOLNI); application rate 0.5 g a.i./ha, 21 DAT): 85% | Herbicidal efficacy ([3]; BRAPP 10 DAT, 0.5 g a.i./ha): 30% | Herbicidal efficacy ([3]; BRAPP 21 DAT, 0.5 g a.i./ha): 20% | Herbicidal efficacy ([3]; BRAPP 21 DAT, 2 g a.i./ha): 80% | Herbicidal efficacy [%] against SORHA 10 DAT ([4]; application rate 2 g a.i./ha): 85% | Herbicidal efficacy [%] against SORHA 21 DAT ([4]; application rate 2 g a.i./ha): 50% | Herbicidal efficacy [%] against XANST 21 DAT ([5]; application rate 0.5 g a.i./ha): 30% | Herbicidal efficacy [%] against XANST 21 DAT ([5]; application rate 2 g a.i./ha): 70% | Herbicidal efficacy ([9]; PHBPU 10 DAT, 0.5 g a.i./ha): 10% | Herbicidal efficacy ([9]; PHBPU 21 DAT, 0.5 g a.i./ha): 10% | Herbicidal efficacy ([6]; POLCO 10 DAT, 0.5 g a.i./ha): 30% | Herbicidal efficacy ([6]; POLCO 21 DAT, 0.5 g a.i./ha): 20%

Source: patent US20260068885A1, “HERBICIDAL COMPOSITIONS” (BAYER AKTIENGESELLSCHAFT, priority 2022, published 2026)
